Data from patent US20080194698A1, “Nmda Receptor Antagonists in the Medical Intervention of Metabolic Disorders” (priority 2005, published 2008).
Read-outs that look alike come from different tables or passages of the source. Each block holds one compound with its values, some of them ahead of it.

Experiments:
[1] = Oral (maternal and offspring feeding) or neonatal s.c. administration of monosodium glutamate to Wistar rats; assay type: in vivo
Experimental: The effects of oral administration of GLU were investigated in 32 pregnant rats and their offspring up to day 90 of life, in the animal facilities of the Department of Physiology, Medical School, Universidad Complutense, Madrid, Spain. The study was conducted in accordance with the principles and procedures outlined in the NIH Guide for the Care and Use of Laboratory Animals. Pregnant Wistar rats were kept under controlled conditions of light (12 h light/12 h darkness) and temperature (21+/−2C.°), and were fed with tap water and rat chow (Panlab, Barcelona, Spain) ad libitum.
At day 14 of pregnancy, the animals were divided into four groups (n=8), and either received no extra monosodium glutamate (MSG) (control, group 1), or 2.5 g MSG (group 2) or 5 g MSG per day (group 3), up to the end of the weaning period. 2.5 g, respectively 5 g MSG accounted for some 10%, respectively 20% of dry weight of the average daily food ration. After weaning and gender separation, MSG feeding was continued in the offspring at the same concentrations. A fourth group of animals received no MSG, but their offspring was injected with MSG 4 mg/g body weight s.c., at neonatal age as described earlier (Hermanussen, (1996) loc. cit.). Due to the existence of two gender groups a total of 8 experimental groups were obtained with n=6-9 for each group of females and males. All litter was weighed at weekly intervals, and the amount of food consumed was registered daily. Offspring was sacrificed half at day 30 and the rest at day 90 of life.
Half of the animals were killed by decapitation at day 30 and the other half at the end of the observation period at day 90. Anterior pituitaries were removed, and trunk blood was collected. Serum samples and anterior pituitaries after being weighted, were kept at −80° C., for hormonal determinations by specific radioimmunoassays (RIA). Pituitary homogenates were obtained by manual glass homogenizers, and processed in saline after thawing in the moment of the measurement.
Plasma GH levels and pituitary GH content were determined by RIA as previously described.^21 Pituitary homogenates were diluted 1:5000 for determination. Reagents were kindly provided by the National Institute of Diabetes, Digestive and Kidney Diseases (NIDDK). The standard used was rat GH RP2. The sensitivity of the curve was 2 ng/ml and the intraassay coefficient of variation was 5.7%. Plasma IGF I concentrations were measured using a commercially available rat RIA kit (DSL-2900, Diagnostic Systems Laboratories, INC). The sensitivity of the assay was 20 ng/ml, and the intraassay coefficients of variation for mean serum concentrations of 323, 772 and 1604 ng/ml were 5.9%, 6.1% and 3.8%, respectively.
Values are expressed as mean +/−SEM. […] To determine differences in final weight or hormonal levels a two-way ANOVA test was performed. Differences among groups were subjected to a post-hoc comparison by using Tukey HSD for unequal N test. Statistics were executed using Statistica program. The significance level was determined to be p<0.05.

[2] = Preliminary clinical trial of memantine in obese, otherwise healthy patients; assay type: in vivo, human
Experimental: The patients experienced an initial loss of body weight of 1 to 3 kg within a 7 day period. Further weight loss is observed during the course of administration over a longer period of time, see appended FIG. 6.
FIG. 6. Percent body weight decline in seven obese and one overweight subjects (6 females, 2 males) during a two month therapeutical trial with memantine (Axura®, Merz Pharmaceuticals GmbH), 5-10 mg in the morning, and 5-20 mg late in the afternoon (Patient […] initial body weight 126.6 kg, […] initial body weight 90.6 kg, Re initial body weight 93.5 kg, Br initial body weight 122.3 kg, Ku initial body weight 111.0 kg, Ho initial body weight 77.6 kg, Sk (male) initial body weight 148.6 kg, Le (male) initial body weight 109.6 kg).
The following preliminary and limited clinical trials have been carried out in the private practice of the inventor. The trials with memantine are carried out since Feb. 2, 2005, in eight obese, but otherwise healthy patients, 6 females, and 2 males (Table 1; FIG. 6).

[3] = cited from earlier work
[4] = doses 100 to 1400 mg; seven of 13 female patients; cited from earlier work
[5] = 5 g MSG per day, day 90 of life, p<0.01

food uptake [1, 5]: almost twofold | water uptake [1, 5]: threefold | weight increments during weaning ([1]; MSG feeding to the mothers maintained during weaning, p<0.01): subnormal | IGF-1 serum levels ([1]; compared with the GH results, day 30 and day 90 of life): Almost identical results | birth weight of the offspring ([1]; maternal feeding with 2.5 g MSG per day, compared to controls): no birth weight modification | birth weight of the offspring ([1]; maternal feeding with 5 g MSG per day, p<0.01): severe birth weight reduction | appetite ([1]; medium MSG diet (2.5 g MSG per day) and particularly high MSG diet (5 g MSG per day)): marked voracity | serum GH levels ([1]; medium MSG diet (2.5 g MSG per day), day 30 of life, p<0.01): low | GH plasma levels of the offspring ([1]; neonatally injected with MSG 4 mg/g body weight s.c., day 30 and day 90 of life, p<0.05): low
SMILES: N[C@@H](CCC(=O)O)C(=O)[O-].[Na+] [MSG, monosodium glutamate]
appetite ([1]; MSG injected animals, compared to controls): did not show significantly increased appetite | serum GH levels ([1]; high MSG diet (5 g MSG per day), day 30 and day 90 of life, p<0.05): as low or even lower than those of MSG injected animals

SMILES: CC12CC3CC(C)(C1)CC(N)(C3)C2 [memantine]
late afternoon or evening binge-eating disorders (patient report) ([2]; already at the second day of treatment): complete disappeared | side effects ([2]; initial treatment period): Apart from short moments of mild dizziness at the first day, and mild constipation, there were no side effects | appetite (patient report) ([2]; obese patients on memantine): significant decrease in appetite | Weight (kg) after treatment ([2]; patient eight, 93.5 kg, BMI 32.6 before treatment, 56 days of treatment): 91.3 kg | Weight (kg) after treatment ([2]; patient five, 90.6 kg, BMI 33.3 before treatment, 49 days of treatment): 86.6 kg | Weight (kg) after treatment ([2]; patient four, 109.6 kg, BMI 31.7 before treatment, 54 days of treatment): 99.4 kg | Weight (kg) after treatment ([2]; patient one, 111.0 kg, BMI 38.6 before treatment, 56 days of treatment): 104.4 kg | Weight (kg) after treatment ([2]; patient seven, 77.6 kg, BMI 27.5 before treatment, 77 days of treatment): 71.4 kg | Weight (kg) after treatment ([2]; patient six, 126.6 kg, BMI 43.3 before treatment, 67 days of treatment): 111.3 kg | Weight (kg) after treatment ([2]; patient three, 122.3 kg, BMI 42.8 before treatment, 40 days of treatment): 117.5 kg | Weight (kg) after treatment ([2]; patient two, 148.6 kg, BMI 38.3 before treatment, 25 days of treatment): 144.8 kg

SMILES: CC1(C)O[C@@H]2[C@@H](CO[C@@]3(COS(N)(=O)=O)OC(C)(C)O[C@@H]23)O1 [topiramate]
weight loss ([3]; 64 mg/d, 6 months): 5.0% | weight loss ([3]; 96 mg, 6 months): 4.8% | weight loss ([3]; 192 mg, 6 months): 6.3% | weight loss ([3]; 384 mg, intention-to-treat population, 6 months, placebo 2.6%): 6.3% | weight loss ([3]; 384-mg dose, completers): up to 8.5% | weight loss [4]: > 5 kg
